Test results published in patent US20170037028A1 (BAYER PHARMA AKTIENGESELLSCHAFT, priority 2013, published 2017).
Like-named read-outs stand apart in the source and are kept apart here.

What was measured:
GLUT2 = target: T1, GLUT2 (Homo sapiens, UniProt P11168); test: Indirect measurement of GLUT2 activity by quantification of intracellular ATP levels (fructose induced ATP increase); assay type: cell-based; conditions: 10 mM fructose, 1 μM Rotenone, 15 min; CellTiter-Glo ATP readout; read-out: IC50 regarding fructose induced ATP increase (GLUT2 inhibition)
T1 construct: host or cells: DLD1 or CHO-K1
T1 sequence (P11168 1-524): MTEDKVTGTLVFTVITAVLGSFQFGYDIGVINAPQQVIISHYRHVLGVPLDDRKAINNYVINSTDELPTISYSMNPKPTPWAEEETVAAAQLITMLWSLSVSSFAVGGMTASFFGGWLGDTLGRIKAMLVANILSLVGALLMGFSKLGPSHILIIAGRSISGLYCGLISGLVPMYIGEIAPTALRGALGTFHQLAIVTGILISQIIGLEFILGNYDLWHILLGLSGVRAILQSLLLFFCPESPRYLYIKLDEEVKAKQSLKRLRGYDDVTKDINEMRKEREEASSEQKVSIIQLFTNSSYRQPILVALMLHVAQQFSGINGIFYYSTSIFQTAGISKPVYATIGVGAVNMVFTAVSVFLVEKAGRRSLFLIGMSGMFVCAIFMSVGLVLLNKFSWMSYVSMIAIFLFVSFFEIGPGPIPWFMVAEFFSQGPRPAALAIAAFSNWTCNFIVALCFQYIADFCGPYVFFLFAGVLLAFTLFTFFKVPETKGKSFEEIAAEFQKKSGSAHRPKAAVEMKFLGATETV
Description: Indirect Measurement of GLUT1 and GLUT2 Activity by Quantification of Intracellular ATP Levels
It is well known that a combination of small-molecule inhibitors of mitochondrial electron transport chain and glucose catabolism synergistically suppress ATP production and impair cellular viability (Ulanovskaya et al., 2008, 2011; Liu, et al. 2001). We therefore used DLD1 or CHO-K1 cells in combination with an oxidative phosphorylation inhibitor to identify GLUT1 and GLUT2 inhibitors. Cell lines were maintained in DMEM medium supplemented with 10% FCS and 1% Penicillin-Streptomycin solution and 2% Glutamax. The cells were treated with trypsin and seeded into 384 plates at a density of 4000 cells/well. The cells were then cultured overnight in glucose free media containing 1% FCS to reduce intracellular ATP levels. […] The CellTiter-Glo® Luminescent Cell Viability Assay from Promega was then used to measure ATP Levels.

GLUT1 = target: T2, GLUT1 (Homo sapiens, UniProt P11166); test: Indirect measurement of GLUT1 activity by quantification of intracellular ATP levels (glucose induced ATP increase); assay type: cell-based; parameters: endogenous in cells; host or cells: DLD1 or CHO-K1; conditions: read-out: IC50 regarding glucose induced ATP increase (GLUT1 inhibition)
T2 sequence (P11166 1-492): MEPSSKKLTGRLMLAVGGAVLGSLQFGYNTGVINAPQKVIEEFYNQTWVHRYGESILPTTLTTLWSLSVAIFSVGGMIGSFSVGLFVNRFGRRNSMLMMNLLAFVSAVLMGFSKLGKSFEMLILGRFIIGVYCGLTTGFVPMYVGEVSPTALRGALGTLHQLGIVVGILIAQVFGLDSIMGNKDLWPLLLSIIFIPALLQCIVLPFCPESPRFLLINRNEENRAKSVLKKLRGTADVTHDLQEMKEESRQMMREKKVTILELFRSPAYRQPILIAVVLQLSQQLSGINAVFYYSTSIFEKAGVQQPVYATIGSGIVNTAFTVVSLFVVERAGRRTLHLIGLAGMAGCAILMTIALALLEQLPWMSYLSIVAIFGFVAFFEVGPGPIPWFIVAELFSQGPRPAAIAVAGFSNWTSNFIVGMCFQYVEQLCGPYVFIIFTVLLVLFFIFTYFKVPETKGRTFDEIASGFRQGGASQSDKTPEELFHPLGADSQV
Method in brief: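 Intracellular ATP was measured by CellTiter-Glo luminescence as an indirect readout of transport: glucose-driven for GLUT1, fructose-driven for GLUT2. DLD1 or CHO-K1 cells were used alongside an oxidative phosphorylation inhibitor. Beforehand, cells were held overnight in glucose-free 1% FCS medium to deplete ATP.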

COc1cc(C(=O)Nc2c(C)nn(Cc3ccc(C#N)cc3)c2C)c2ccccc2n1 [Example 15, N-[1-(4-cyanobenzyl)-3,5-dimethyl-1H-pyrazol-4-yl]-2-methoxyquinoline-4-carboxamide]
IC50 (GLUT2): 85.4 µM
IC50 (GLUT1): 0.0116 µM

Cc1nn(Cc2ccc(C#N)cn2)c(C)c1NC(=O)c1cc(C(N)=O)nc2cccc(F)c12 [Example 352, N^4-{1-[(5-cyanopyridin-2-yl)methyl]-3,5-dimethyl-1H-pyrazol-4-yl}-5-fluoroquinoline-2,4-dicarboxamide]
IC50 (GLUT2): 45.1 µM
IC50 (GLUT1): 0.0025 µM

Cc1nn(Cc2ccc(CN(C)C)cc2)c(C)c1NC(=O)c1cc(C(N)=O)nc2cc(F)ccc12 [Example 388, N^4-(1-{4-[(dimethylamino)methyl]benzyl}-3,5-dimethyl-1H-pyrazol-4-yl)-7-fluoroquinoline-2,4-dicarboxamide]
IC50 (GLUT2): 51.2 µM
IC50 (GLUT1): 0.108 µM

CCS(=O)(=O)N1CCC(Cn2nc(C)c(NC(=O)c3cc(C(N)=O)nc4cc(F)c(Cl)cc34)c2C)CC1 [Example 415, 6-chloro-N^4-(1-{[1-(ethylsulfonyl)piperidin-4-yl]methyl}-3,5-dimethyl-1H-pyrazol-4-yl)-7-fluoroquinoline-2,4-dicarboxamide]
IC50 (GLUT2): 18.4 µM
IC50 (GLUT1): 0.01 µM

CNC(=O)c1nc(Cn2nc(C(F)(F)F)c(NC(=O)c3cc(C(N)=O)nc4cc(F)c(Cl)cc34)c2C)no1 [Example 1558]
IC50 (GLUT2): 51.2 µM
IC50 (GLUT1): 0.0119 µM

CCc1noc(Cn2nc(C)c(NC(=O)c3cc(C(N)=O)nc4ccccc34)c2C)n1 [Example 1571]
IC50 (GLUT2): 36.1 µM
IC50 (GLUT1): 0.0641 µM

Cc1c(NC(=O)c2cc(C(N)=O)nc3cc(F)ccc23)c(C(F)(F)F)nn1Cc1nc2ccccc2o1 [Example 1678]
IC50 (GLUT1): 0.0577 µM

Cc1c(NC(=O)c2cc(C(N)=O)nc3ccccc23)c(C(F)(F)F)nn1Cc1ccc(C#N)s1 [Example 1679]
IC50 (GLUT1): 0.0186 µM

COC(=O)c1coc(Cn2nc(C(F)(F)F)c(NC(=O)c3cc(C(N)=O)nc4ccccc34)c2C)n1 [Example 1680]
IC50 (GLUT1): 0.146 µM

COC(=O)c1coc(Cn2nc(C(F)(F)F)c(NC(=O)c3cc(C(N)=O)nc4cc(F)ccc34)c2C)n1 [Example 1681]
IC50 (GLUT1): 0.0867 µM

COC(=O)c1coc(Cn2nc(C(F)(F)F)c(NC(=O)c3cc(C(N)=O)nc4cc(F)c(Cl)cc34)c2C)n1 [Example 1682]
IC50 (GLUT1): 0.0367 µM

CCOC(=O)c1cc(Cn2nc(C(F)(F)F)c(NC(=O)c3cc(C(N)=O)nc4cc(F)c(Cl)cc34)c2C)on1 [Example 1683]
IC50 (GLUT1): 0.109 µM

Cc1c(NC(=O)c2cc(C(N)=O)nc3ccccc23)c(C(F)(F)F)nn1Cc1nc(C(=O)O)co1 [Example 1684]
IC50 (GLUT1): 0.721 µM

Cc1c(NC(=O)c2cc(C(N)=O)nc3cc(F)c(Cl)cc23)c(C(F)(F)F)nn1Cc1nc(C(=O)O)co1 [Example 1686]
IC50 (GLUT1): 1.29 µM

Cc1c(NC(=O)c2cc(C(N)=O)nc3cc(F)ccc23)c(C(F)(F)F)nn1Cc1cccc(C#N)n1 [Example 1687]
IC50 (GLUT1): 0.128 µM

Cc1c(NC(=O)c2cc(C(N)=O)nc3cccc(F)c23)c(C(F)(F)F)nn1Cc1cccc(C#N)n1 [Example 1688]
IC50 (GLUT1): 0.0868 µM

Cc1c(NC(=O)c2cc(C(N)=O)nc3cc(F)c(Cl)cc23)c(C(F)(F)F)nn1Cc1cccc(C#N)n1 [Example 1689]
IC50 (GLUT1): 0.0309 µM

Cc1c(NC(=O)c2cc(C(N)=O)nc3ccccc23)c(C(F)(F)F)nn1Cc1cccc(C#N)n1 [Example 1690]
IC50 (GLUT1): 0.353 µM

Cc1nn(CC(=O)Nc2cccc(C#N)c2)c(C)c1NC(=O)c1cc(C(N)=O)nc2ccccc12 [Example 1691]
IC50 (GLUT1): 0.556 µM

Cc1nn(CC(=O)Nc2ccc(F)cc2)c(C)c1NC(=O)c1cc(C(N)=O)nc2ccccc12 [Example 1692]
IC50 (GLUT1): 0.208 µM

Cc1nn(CC(=O)N(C)c2ccc(F)cc2)c(C)c1NC(=O)c1cc(C(N)=O)nc2ccccc12 [Example 1693]
IC50 (GLUT1): 0.0436 µM

Cc1cc(Cn2nc(C(F)(F)F)c(NC(=O)c3cc(C(N)=O)nc4cccc(F)c34)c2C)ccc1C#N [Example 1694]
IC50 (GLUT1): 0.0012 µM

Cc1cc(Cn2nc(C(F)(F)F)c(NC(=O)c3cc(C(N)=O)nc4cc(F)ccc34)c2C)ccc1C#N [Example 1695]
IC50 (GLUT1): 0.0047 µM

Cc1cc(Cn2nc(C)c(NC(=O)c3cc(C(N)=O)nc4cc(F)c(Cl)cc34)c2C)ccc1C#N [Example 1696]
IC50 (GLUT1): 0.0009 µM

Cc1cc(Cn2nc(C)c(NC(=O)c3cc(C(N)=O)nc4cccc(F)c34)c2C)ccc1C#N [Example 1697]
IC50 (GLUT1): 0.0005 µM

Cc1cc(Cn2nc(C)c(NC(=O)c3cc(C(N)=O)nc4cc(F)ccc34)c2C)ccc1C#N [Example 1698]
IC50 (GLUT1): 0.0012 µM

Cc1ccc(C#N)c(Cn2nc(C)c(NC(=O)c3cc(C(N)=O)nc4cc(F)c(Cl)cc34)c2C)c1 [Example 1699]
IC50 (GLUT1): 0.0113 µM

Cc1ccc(C#N)c(Cn2nc(C(F)(F)F)c(NC(=O)c3cc(C(N)=O)nc4cc(F)ccc34)c2C)c1 [Example 1700]
IC50 (GLUT1): 0.0386 µM

Cc1nn(CC(=O)Nc2cccc(F)c2)c(C)c1NC(=O)c1cc(C(N)=O)nc2ccccc12 [Example 1701]
IC50 (GLUT1): 0.165 µM

Cc1c(NC(=O)c2cc(C(N)=O)nc3ccccc23)c(C(F)(F)F)nn1Cc1cc(CN2CCOCC2)on1 [Example 1702]
IC50 (GLUT1): 0.14 µM

Cc1c(NC(=O)c2cc(C(N)=O)nc3cc(F)ccc23)c(C(F)(F)F)nn1Cc1ccccc1OC(F)(F)F [Example 1703]
IC50 (GLUT1; DLD1 cells, 0.1 mM glucose, 1 μM Rotenone, 15 min, CellTiter-Glo ATP readout, IC50 values standardized to cytochalasin B IC50 values): 0.387 µM

Cc1c(NC(=O)c2cc(C(N)=O)nc3cc(F)c(Cl)cc23)c(C(F)(F)F)nn1Cc1ccccc1OC(F)(F)F [Example 1704]
IC50 (GLUT1): 0.11 µM

Cc1c(NC(=O)c2cc(C(N)=O)nc3ccccc23)c(C(F)(F)F)nn1Cc1ccccc1OC(F)(F)F [Example 1705]
IC50 (GLUT1): 0.172 µM

Cc1c(NC(=O)c2cc(C(N)=O)nc3cccc(F)c23)c(C(F)(F)F)nn1Cc1ccccc1OC(F)(F)F [Example 1706]
IC50 (GLUT1): 0.616 µM

Cc1nn(Cc2cccc(C#N)n2)c(C)c1NC(=O)c1cc(C(N)=O)nc2cc(F)ccc12 [Example 1707]
IC50 (GLUT1): 0.124 µM

Cc1nn(Cc2cccc(C#N)n2)c(C)c1NC(=O)c1cc(C(N)=O)nc2ccccc12 [Example 1708]
IC50 (GLUT1): 0.147 µM

Cc1nn(Cc2cccc(C#N)n2)c(C)c1NC(=O)c1cc(C(N)=O)nc2cccc(F)c12 [Example 1709]
IC50 (GLUT1): 0.0281 µM

Cc1cc(F)ccc1Cn1nc(C(F)(F)F)c(NC(=O)c2cc(C(N)=O)nc3cc(F)ccc23)c1C [Example 1710]
IC50 (GLUT1): 0.0038 µM

Cc1cc(F)ccc1Cn1nc(C(F)(F)F)c(NC(=O)c2cc(C(N)=O)nc3cccc(F)c23)c1C [Example 1711]
IC50 (GLUT1): 0.0044 µM

Cc1cc(F)ccc1Cn1nc(C(F)(F)F)c(NC(=O)c2cc(C(N)=O)nc3cc(F)c(Cl)cc23)c1C [Example 1712]
IC50 (GLUT1): 0.0065 µM

Cc1cc(F)ccc1Cn1nc(C(F)(F)F)c(NC(=O)c2cc(C(N)=O)nc3ccccc23)c1C [Example 1713]
IC50 (GLUT1): 0.005 µM

Cc1c(NC(=O)c2cc(C(N)=O)nc3cc(F)ccc23)c(C(F)(F)F)nn1Cc1ccc(CC(F)(F)F)cc1 [Example 1714]
IC50 (GLUT1): 0.0064 µM

Cc1c(NC(=O)c2cc(C(N)=O)nc3cccc(F)c23)c(C(F)(F)F)nn1Cc1ccc(CC(F)(F)F)cc1 [Example 1715]
IC50 (GLUT1): 0.0015 µM

Cc1c(NC(=O)c2cc(C(N)=O)nc3cc(F)c(Cl)cc23)c(C(F)(F)F)nn1Cc1ccc(CC(F)(F)F)cc1 [Example 1716]
IC50 (GLUT1): 0.003 µM

Cc1c(NC(=O)c2cc(C(N)=O)nc3ccccc23)c(C(F)(F)F)nn1Cc1ccc(CC(F)(F)F)cc1 [Example 1717]
IC50 (GLUT1): 0.0025 µM
